Data from patent US20080139513A1, “TRANSDERMAL DELIVER OF ACTIVE AGENTS” (Novavax, Inc., priority 2006, published 2008).
Converted amounts (≈) assume the structure as drawn. Where a name gives a salt, the structure may show the parent alone. Read-outs that look alike come from different tables or passages of the source.

Legend:
[1] = cited from earlier work
bacterial mutagenesis = details: with and without metabolic activation; cited from earlier work
mammalian cell mutation = details: cited from earlier work
Chinese hamsters = details: cited from earlier work
[2] = tested on: Chinese hamster ovary cells; details: cited from earlier work
[3] = cited from earlier work; remark: listed apart in the source
rat hepatocytes = details: cited from earlier work
mice [4] = details: cited from earlier work
[5] = cited from earlier work; remark: listed apart in the source
in vitro = details: human, topical or ocular
women [6] = details: women taking the drug, MORE trial; cited from earlier work
rats = details: female rats given 279 mg/kg, 2 years; cited from earlier work
[7] = cited from earlier work; remark: listed apart in the source
postmenopausal women = details: cited from earlier work
uterus = details: clinical studies; cited from earlier work
mice [8] = details: cited from earlier work; remark: listed apart in the source
[9] = oral, cited from earlier work
women [10] = details: cited from earlier work

In the case of `O=C1CC[C@@]2(O)[C@H]3Cc4ccc(O)c5c4[C@@]2(CCN3CC2CC2)[C@H]1O5` [Naltrexone], the “solubility in water” value ([1]; water) is given as “water soluble”.

For `O=C(c1ccc(OCCN2CCCCC2)cc1)c1c(-c2ccc(O)cc2)sc2cc(O)ccc12` [Raloxifene.HCl, raloxifene hydrochloride], the “genotoxicity, Ames test” value (bacterial mutagenesis) is listed as “not genotoxic”, the “genotoxicity, mouse lymphoma assay” value (mammalian cell mutation) is listed as “not genotoxic” and the “genotoxicity, in vivo sister chromatid exchange assay” value (Chinese hamsters) is listed as “not genotoxic”. The “genotoxicity, chromosomal aberration assay” value [2] was “not genotoxic”, the “increase in AUC with increasing doses” value ([3]; doses ranging from 30 to 150 mg) was “slightly less than a proportional increase” and the “genotoxicity, unscheduled DNA synthesis assay” value (rat hepatocytes) was “not genotoxic”. For the same molecule, the “genotoxicity, in vivo micronucleus test” value (mice [4]) was “not genotoxic”.

In the case of `O=C(c1ccc(OCCN2CCCCC2)cc1)c1c(-c2ccc(O)cc2)sc2cc(O)ccc12` [Raloxifene], the “log P” value [5] is listed as 5.749, the bioavailability at 3 wt % (in vitro) is listed as roughly 1% and the “incidence of breast cancer compared with controls” value (women [6]) is listed as “lower incidence”. The “incidence in ovarian tumors of granulosa/theca cell origin” value (rats) was “increased incidence”, the water solubility ([1]; H2O) was 0.25 µg/mL (≈ 0.528 µM) and the “increased incidence of VTE” value ([7]; oral) was 2-4 times. For the same molecule, the plasma antithrombin levels ([7]; raloxifene use) was “significant reduction”, the tPA levels ([7]; raloxifene use) was “significant reduction” and the “fewer uterine cancers than those assigned to tamoxifen” value (postmenopausal women; STAR trial) was 36%. For the same molecule, the “reduction of risk for invasive breast cancer” value (postmenopausal women; postmenopausal women, STAR trial interim analysis) was “approximately 50%”, the uterotrophic activity (uterus) was “does not have uterotrophic activity” and the plasma elimination half-life ([3]; after oral dosing) was 27.7 h. For the same molecule, the clearance rate ([3]; following intravenous administration) was “approximating hepatic blood flow”, the “incidence of ovarian tumors” value (mice [8]; female mice given 9 to 242 mg/kg, 21 months) was “increased incidence” and the “incidence of prostatic leiomyoblastoma” value (mice [8]; male mice given 210 mg/kg) was “increased incidence”. For the same molecule, the “incidence of testicular interstitial cell tumors, prostatic adenomas, and adenocarcinomas” value (mice [8]; male mice given 41 or 210 mg/kg) was “increased incidence”, the absolute bioavailability [9] was 2% and the absolute bioavailability ([9]; listed as raloxifene) was “approximately 2%”.

In the case of estrogen, the “VTE rates compared to placebo group” value (women [10]; estrogen transdermally) is listed as “no significant difference” and the “risk of VTE compared to a placebo group” value (women [10]; oral estrogen, 95 percent CI 1.8-6.8) is listed as 3.5 fold.
